{
  "source": "paper PMC7571068",
  "about": "“Antiproliferative and Pro-Apoptotic Effect of Uvaol in Human Hepatocarcinoma HepG2 Cells by Affecting G0/G1 Cell Cycle Arrest, ROS Production and AKT/PI3K Signaling Pathway” (Molecules, 2020)",
  "key": {"WRL68 cells": {"test_system": "WRL68 cells", "test": "Muse Annexin V & Dead Cell apoptosis assay", "assay_type": "cell-based, human", "conditions": "WRL68, staurosporine 1 μg/mL (positive control)", "description": "(§1) A total of 1.5 × 10^5 cells were seeded per well in 24-well plates for each cell line (quadruplicates for three different populations of each cell line). […] Negative control populations were incubated only with the appropriate culture medium. The samples were analyzed in the Muse^TM Cell Analyzer (Merck-Millipore®, Burlington, MA, USA). Phosphatidylserine (PS) is a phospholipid that is usually found in the inner half of the cytoplasmic membrane, but is outsourced when loss of integrity occurs in the apoptosis process. The method is based on the recognition and binding to the PS exposed by annexin V protein, labeled with a fluorescent substance to detect the interaction and quantify it. We used the Muse^TM Annexin V & Dead Cell kit purchased from Millipore (Billerica, MA, USA), which provides the percentage of viable cells, apoptotic and affected by necrosis."}, "HepG2 cells [1]": {"test_system": "HepG2 cells", "test": "Muse Annexin V & Dead Cell apoptosis assay", "assay_type": "cell-based, human", "conditions": "HepG2, staurosporine 1 μg/mL (positive control)", "description": "as §1"}, "HepG2 cells [2]": {"test_system": "HepG2 cells", "parameters": "method as in PMID 26370984", "conditions": "HepG2, 72 h; cited from earlier work"}, "HepG2 line": {"test_system": "HepG2 line", "parameters": "method as in PMID 26151733", "conditions": "HepG2, 22.11 μg/mL, same phase = G0/G1; cited from earlier work"}},
  "data": [
    {"smiles": "CN[C@@H]1C[C@H]2O[C@@](C)([C@@H]1OC)n1c3ccccc3c3c4c(c5c6ccccc6n2c5c31)C(=O)NC4", "note": "[staurosporine, reference compound]", "values": [
      {"measurement": "change in number of apoptotic and necrotic cells vs control", "setting": "WRL68 cells", "value": "equally significant increase"},
      {"measurement": "change in number of viable cells vs control", "setting": "WRL68 cells", "value": "significant decrease"},
      {"measurement": "change in apoptotic cells vs control", "setting": "HepG2 cells [1]", "value": "did not lead to an increase in apoptotic cells"}
    ]},
    {"smiles": "CC1(C)CC[C@]2(C(=O)O)CC[C@]3(C)C(=CC[C@@H]4[C@@]5(C)C[C@@H](O)[C@H](O)C(C)(C)[C@@H]5CC[C@]43C)[C@@H]2C1", "note": "[maslinic acid]", "values": [
      {"measurement": "IC50", "setting": "HepG2 cells [2]", "value": 47, "unit": "µg/mL"}
    ]},
    {"smiles": "CC1(C)CC[C@]2(C(=O)O)CC[C@]3(C)C(=CC[C@@H]4[C@@]5(C)CC[C@H](O)C(C)(C)[C@@H]5CC[C@]43C)[C@@H]2C1", "note": "[oleanolic acid]", "values": [
      {"measurement": "cell cycle arrest", "setting": "HepG2 line", "value": "arrest in the same phase of the cycle"}
    ]}
  ]
}
